Results from patent US20230363335A1, “STANDARDIZED AND VIRUS-FREE RAPID PROPAGATION METHOD OF DIANTHUS CARYOPHYLLUS” (Flower Research Institute, Yunnan Academy of Agricultural …, priority 2022, published 2023).

Assays:
[1] = test system: Carnation mottle virus (CarMV) and Carnation necrotic fleck virus (CNFV); experiment: Virus-free culture, ribavirin combined with shoot apex peeling: virus-free regenerated plants; assay type: in vivo, Dianthus caryophyllus; conditions: 3 mg/L to 5 mg/L ribavirin in medium, 30 d to 40 d; for Number of virus-free regenerated plant (s): 30 shoot apexes
Procedure: Double-antibody sandwich ELISA included: 100 µL of an antibody diluted to a working concentration with a coating buffer was added to wells of a microtiter plate, the microtiter plate was placed in a wet box, and incubated in a refrigerator at 4° C. overnight, or incubated at room temperature (20° C. to 25° C.) for 4 h. The coating buffer was a 0.05 mol/L Na2CO3—NaHCO3 buffer, at a pH value of 9.6. Dianthus caryophyllus leaves and a grinding buffer were put in a disposable ziplock bag at a ratio of 1:10 (W/V), the bag was sealed tightly, and the sample was ground. The grinding buffer was obtained by: dissolving 2.0 g of a skim milk powder, 10.0 g of polyvinylpyrrolidone (PVP, MW24,000-40,000), 1.3 g of anhydrous sodium sulfite, 0.2 g of NaN3, and 10.0 g of Tween-20 in a washing buffer (PBST), diluting to 1,000 mL, and storing at 4° C. The washing buffer (PBST) was obtained by: dissolving 8.0 g of NaCl, 0.2 g of KH2PO4, 2.9 g of Na2HPO4·12H2O, 0.2 g of KCl, and 0.5 mL of Tween-20 in distilled water, diluting to 1,000 mL, and adjusting to a pH value of 7.4. After incubation, the microtiter plate was washed 4 to 6 times with the washing buffer. 400 µL of the PBST washing buffer was added to each well and held for 1 min to 2 min each time. 100 µL of a supernatant after grinding was added to each well, and each sample to be tested was repeated twice, and a negative control and a positive control were set at the same time. The microtiter plate was placed in a wet box, incubated in a refrigerator at 4° C. overnight or incubated at 21° C. to 24° C. for 2.5 h. The plate was washed. An enzyme-labeled antibody was prepared 10 min before coating, a dilution buffer of the specific enzyme-labeled antibody was diluted to a working concentration, and 100 µL was added to each well. The microtiter plate was placed in a wet box, incubated at 21° C. to 24° C. for 2.5 h. The plate was washed. The dilution buffer of the enzyme-labeled antibody was obtained by: dissolving 2.0 g of bovine serum albumin (BSA), 10.0 g of PVP (MW24,000-40,000), and 0.2 g of NaN3 in the PBST, diluting to 1,000 mL, and storing at 4° C. 100 µL of a substrate solution was added to each well. The substrate solution was prepared for immediate use by: dissolving 1 mg of PNPP in 1 mL of a substrate buffer, with a concentration of 1 mg/mL. The substrate buffer is obtained by: dissolving 97.0 mL of diethanolamine, 0.1 g of magnesium chloride, and 0.2 g of NaN3 in 800 mL of distilled water, adjusting to a pH value of 9.8 with 2 mol/L hydrochloric acid, diluting to 1000 mL, and storing at 4° C. The microtiter plate was placed in a wet box, to conduct color development at 21° C. to 24° C. for 30 min to 60 min in the dark. 50 µL of a stop solution was added to each well to stop the reaction. The stop solution was a sodium hydroxide solution of 3 mol/L. Within 20 min of stopping the reaction, the microtiter plate was placed in a microplate reader, an absorbance (OD405) was measured at 405 nm, and a reaction result was recorded. If an average OD value of the sample was greater than 2 times an OD value of the negative control, it was determined to be the CarMV.
The indirect ELISA included: Dianthus caryophyllus leaves and an indirect sample extraction buffer were placed in a disposable ziplock bag at a ratio of 1:100 (W/V), the bag was sealed tightly, and the sample was ground. The sample extraction buffer was obtained by: dissolving 20.1 g of PVP (MW24,000-40,000), 0.2 g of NaN3, 3.0 g of NaHCO3, and 1.6 g of Na2CO3 in distilled water, diluting to […], and storing at 4° C. 100 µL of a supernatant after grinding was added to each well, and each sample to be tested was repeated twice, and a negative control and a positive control were set at the same time. The microtiter plate was placed in a wet box and incubated at room temperature for 1 h. After incubation, the microtiter plate was washed 8 times with the PBST washing buffer. […]

[2] = test system: Dianthus caryophyllus shoot apex; experiment: Virus-free culture, ribavirin combined with shoot apex peeling: regeneration of peeled shoot apex; assay type: in vivo; conditions: 3 mg/L to 5 mg/L ribavirin in medium, 30 d to 40 d; for Number of regenerated plant (s): 30 shoot apexes
Description: After the explant germinated and buds grew to 2 cm to 3 cm, the buds were cut and subjected to virus-free culture; three virus-free methods were used, and the most suitable virus-free method was selected for Dianthus caryophyllus. • (1) Directly shoot apex peeling method: the material was placed on an ultra-clean workbench, and tender leaves were peeled off with tweezers and a scalpel under the naked eye to expose a growth cone; a base of the bud was fixed with tweezers, and the shoot apex was continued to be peeled under a dissecting microscope at 25 to 50 times; when peeling to a growth point containing 1 to 2 pairs of leaf primordia, the shoot apex was picked on a medium with the tip of a knife. • (2) High-temperature treatment combined with shoot apex peeling method: the material was placed in a KBWF720 artificial climate box, and incubated for 30 d to 35 d at 38° C. ± 1° C. every day, with illumination for 14 h to 16 h at 1,200 Lux to 1,500 Lux, and then with darkness for 8 h to 10 h; and the shoot apex was continued to be peeled under a dissecting microscope at 25 to 50 times; when peeling to a growth point containing 1 to 2 pairs of leaf primordia, the shoot apex was picked on a medium with the tip of a knife. • (3) Ribavirin combined with shoot apex peeling method: the material was inoculated on a medium containing ribavirin for culture, namely MS+BA 0.5 mg/L to 1.5 mg/L+NAA 0.1 mg/L to 0.3 mg/L+3 mg/L to 5 mg/L ribavirin+A Agar 6.0 g/L, 3% sucrose, at a pH value of 5.8 to 6.0; after culturing for 30 d to 40 d, the shoot apex was peeled off.
The peeled shoot apex was inoculated on a medium including MS+BA 0.5 mg/L to 1.0 mg/L+NAA 0.1 mg/L to 0.3 mg/L+A agar 6.0 g/L, 3% sucrose, at a pH value of 5.8 to 6.0; each shoot apex was cultured and numbered separately; the culture was conducted at 22±1° C. and an illumination intensity of 2,000 Lux to 4,000 Lux with an illumination time of 10 h/d to 12 h/d.

[3] = growth point of peeled shoot apex 0.2 mm
[4] = growth point of peeled shoot apex 0.4 mm
[5] = growth point of peeled shoot apex 0.6 mm
[6] = growth point of peeled shoot apex 0.8 mm
[7] = growth point of peeled shoot apex 1.0 mm

## NC(=O)c1ncn([C@@H]2O[C@H](CO)[C@@H](O)[C@H]2O)n1 [Ribavirin, ribavirin]
[1]; [3]
  Virus-free rate (%): 33.33%
  Number of virus-free regenerated plant (s): 10
[1]; [4]
  Virus-free rate (%): 30.00%
  Number of virus-free regenerated plant (s): 9
[1]; [5]
  Virus-free rate (%): 26.67%
  Number of virus-free regenerated plant (s): 8
[1]; [6]
  Virus-free rate (%): 20.00%
  Number of virus-free regenerated plant (s): 6
[1]; [7]
  Virus-free rate (%): 10.00%
  Number of virus-free regenerated plant (s): 3
[2]; [3]
  Regeneration rate (%): 53.33%
  Number of regenerated plant (s): 16
[2]; [4]
  Regeneration rate (%): 63.33%
  Number of regenerated plant (s): 19
[2]; [5]
  Regeneration rate (%): 73.33%
  Number of regenerated plant (s): 22
[2]; [6]
  Regeneration rate (%): 86.67%
  Number of regenerated plant (s): 26
[2]; [7]
  Regeneration rate (%): 96.67%
  Number of regenerated plant (s): 29
